From patent publication US20170137410A1, “FUSED CYCLOALKYL-PYRIMIDINE COMPOUNDS AND USES THEREOF” (Medivation Technologies, Inc., priority 2014, published 2017) come the findings set out here.

Some results are limits rather than exact numbers.

The target of one test is T1, FLT3 (D835Y) (Homo sapiens, UniProt P36888, D835Y).
T1 sequence (P36888 27-993 D835Y): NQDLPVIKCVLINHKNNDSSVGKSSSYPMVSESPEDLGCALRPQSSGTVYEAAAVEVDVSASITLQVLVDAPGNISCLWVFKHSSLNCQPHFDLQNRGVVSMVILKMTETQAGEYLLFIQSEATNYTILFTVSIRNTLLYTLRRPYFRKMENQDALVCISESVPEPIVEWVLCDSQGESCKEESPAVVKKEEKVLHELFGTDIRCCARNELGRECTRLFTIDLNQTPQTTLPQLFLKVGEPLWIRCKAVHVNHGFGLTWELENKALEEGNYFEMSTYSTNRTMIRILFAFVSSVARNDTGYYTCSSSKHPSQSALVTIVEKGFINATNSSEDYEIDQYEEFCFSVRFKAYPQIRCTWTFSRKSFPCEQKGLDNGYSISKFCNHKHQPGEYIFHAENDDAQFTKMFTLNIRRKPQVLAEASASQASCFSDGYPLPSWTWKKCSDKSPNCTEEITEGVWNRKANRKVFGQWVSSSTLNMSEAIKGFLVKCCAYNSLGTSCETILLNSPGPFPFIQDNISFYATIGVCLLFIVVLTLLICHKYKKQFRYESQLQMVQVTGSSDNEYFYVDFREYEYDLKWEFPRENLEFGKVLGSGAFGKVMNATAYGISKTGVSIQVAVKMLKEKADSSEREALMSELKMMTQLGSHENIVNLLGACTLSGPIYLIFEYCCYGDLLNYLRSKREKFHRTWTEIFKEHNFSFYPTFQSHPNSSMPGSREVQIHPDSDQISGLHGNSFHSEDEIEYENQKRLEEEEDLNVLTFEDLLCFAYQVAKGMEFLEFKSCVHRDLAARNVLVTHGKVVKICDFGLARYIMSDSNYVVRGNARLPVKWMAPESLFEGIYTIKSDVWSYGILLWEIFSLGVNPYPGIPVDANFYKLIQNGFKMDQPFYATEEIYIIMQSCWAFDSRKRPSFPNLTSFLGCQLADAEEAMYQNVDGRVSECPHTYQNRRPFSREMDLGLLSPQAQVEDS
Nature of the test: HotSpot kinase assay against FLT3 (D835Y). The test is classed as biochemical. Particulars: HotSpot 33P assay, ATP 10 μM. The protocol:
(§1) Kinase assays were performed using test compounds against a panel of FLT3 kinases: FLT3; FLT3 (D835Y); and FLT3 (ITD). Compounds were prepared as 10 mM stock solutions in DMSO prior to use in the assay. Each compound was tested at 10 concentrations with three-fold serial dilution starting at 1 μM against the three kinases. The control compound, staurosporine, was tested at 10 concentrations with four-fold serial dilution starting at 20 μM. IC50 values and curve fits were obtained using Prism (GraphPad Software). The screening was performed using the “HotSpot” assay platform. The assay measures the conversion of a peptide substrate to ^33P-labelled phosphorylated product. Briefly, specific kinase/substrate pairs along with required cofactors were prepared in reaction buffer. Specifically, the substrate was prepared in reaction buffer (20 mM Hepes, pH 7.5; 10 mM MgCl2; 1 mM EGTA; 0.02% Brij35; 0.02 mg/mL BSA; 0.1 mM Na3VO4; 2 mM DTT; 1% DMSO), followed by delivery of any required cofactor to the resulting substrate solution. The corresponding kinase was delivered into the substrate solution and the reaction mixture was mixed gently. Compound was delivered into the reaction mixture, followed 15-20 min later by addition of a mixture of ATP (Sigma, St. Louis Mo.) and ^33P ATP (specific activity 0.01 μCi/μL final; Perkin Elmer, Waltham, Mass.) to a final concentration of 10 μM to initiate the reaction. Reactions were carried out at RT for 120 min, followed by spotting of the reactions onto P81 ion exchange filter paper (Whatman #3698-915; Whatman Inc., Piscataway, N.J.). Unbound phosphate was removed by extensive washing of filters in 0.75% phosphoric acid. […] The percent of enzyme inhibition was calculated based on the percent of remaining kinase activity. IC50 values were determined.

The target of the next test is T2, FLT3 (ITD) (Homo sapiens, UniProt P36888).
T2 sequence (P36888 1-993): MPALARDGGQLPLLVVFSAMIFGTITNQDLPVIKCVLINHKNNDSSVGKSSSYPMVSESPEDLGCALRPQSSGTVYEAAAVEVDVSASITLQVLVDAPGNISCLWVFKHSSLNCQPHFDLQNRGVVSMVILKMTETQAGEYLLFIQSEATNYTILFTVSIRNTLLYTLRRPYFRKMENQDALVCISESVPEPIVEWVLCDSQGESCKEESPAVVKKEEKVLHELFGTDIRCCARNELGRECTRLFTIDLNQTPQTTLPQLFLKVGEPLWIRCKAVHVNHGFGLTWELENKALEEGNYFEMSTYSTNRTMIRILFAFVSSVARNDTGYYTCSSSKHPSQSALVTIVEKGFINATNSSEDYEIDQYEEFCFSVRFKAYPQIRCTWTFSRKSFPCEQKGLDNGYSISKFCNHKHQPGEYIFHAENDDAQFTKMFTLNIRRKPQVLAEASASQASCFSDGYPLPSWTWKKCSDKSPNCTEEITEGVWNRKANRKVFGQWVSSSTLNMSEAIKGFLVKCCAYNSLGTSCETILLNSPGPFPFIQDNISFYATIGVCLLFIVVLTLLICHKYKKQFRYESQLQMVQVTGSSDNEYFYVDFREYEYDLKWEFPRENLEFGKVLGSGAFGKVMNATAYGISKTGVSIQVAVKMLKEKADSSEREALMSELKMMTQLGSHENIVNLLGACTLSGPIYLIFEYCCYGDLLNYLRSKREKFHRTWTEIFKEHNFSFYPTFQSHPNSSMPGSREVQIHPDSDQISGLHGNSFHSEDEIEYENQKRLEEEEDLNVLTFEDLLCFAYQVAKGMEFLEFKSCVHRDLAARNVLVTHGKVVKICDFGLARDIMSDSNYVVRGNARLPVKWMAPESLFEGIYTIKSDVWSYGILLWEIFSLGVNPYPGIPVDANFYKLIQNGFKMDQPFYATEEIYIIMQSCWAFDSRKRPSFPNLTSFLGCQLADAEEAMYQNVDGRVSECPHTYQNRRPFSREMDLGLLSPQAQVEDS
The test can be described thus: HotSpot kinase assay against FLT3 (ITD). Particulars: HotSpot 33P assay, ATP 10 μM. The test is classed as biochemical. The procedure:
as §1

For the compound `CCN(C(=O)[C@@H]1CCCN1c1nc2c(c(Nc3cc(C(C)(C)C)[nH]n3)n1)CCC2)c1nccs1` [144b, (S)-1-(4-((5-(tert-butyl)-1 H-pyrazol-3-yl)amino)-6,7-dihydro-5H-cyclopenta[d]pyrimidin-2-yl)-N-ethyl-N-(thiazol-2-yl)pyrrolidine-2-carboxamide], the IC50 on FLT3 (D835Y) and on FLT3 (ITD) was more than 1000 nM throughout.
Consider `CCC(=O)N1CCN(C(=O)[C@H]2CCCN2c2nc3c(c(Nc4cc(C5CCCC5)[nH]n4)n2)CCC3)CC1` [143a, 1-(4-((4-((5-cyclopentyl-1H-pyrazol-3-yl)amino)-6,7-dihydro-5H-cyclopenta[d]pyrimidin-2-yl)-D-prolyl)piperazin-1-yl)propan-1-one], for which the IC50 (commonly the concentration needed to halve the response being measured) at FLT3 (D835Y) stood at 14 nM; against FLT3 (ITD), 13.7 nM.
The like results for `CCN(C(=O)[C@@H]1CCCN1c1nc2c(c(Nc3cc(C(C)C)[nH]n3)n1)CCC2)c1nccs1` [145b, (S)—N-ethyl-1-(4-((5-isopropyl-1H-pyrazol-3-yl)amino)-6,7-dihydro-5H-cyclopenta[d]pyrimidin-2-yl)-N-(thiazol-2-yl)pyrrolidine-2-carboxamide] were, in that order, 262 nM and 435 nM.
The like results for `CCC(=O)N1CCN(C(=O)[C@@H]2CCCN2c2nc3c(c(Nc4cc(C5CCCC5)[nH]n4)n2)CCC3)CC1` [143b, (S)-1-(4-((4-((5-cyclopentyl-1H-pyrazol-3-yl)amino)-6,7-dihydro-5H-cyclopenta[d]pyrimidin-2-yl)prolyl)piperazin-1-yl)propan-1-one] were, in that order, 187 nM and 310 nM.
The like results for `CC(C)(C)c1cc(Nc2nc(N3CCC[C@@H]3C(=O)N3CCC(F)(F)CC3)nc3c2CCC3)n[nH]1` [142a, (R)-(1-(4-((5-(tert-butyl)-1H-pyrazol-3-yl)amino)-6,7-dihydro-5H-cyclopenta[d]pyrimidin-2-yl)pyrrolidin-2-yl)(4,4-difluoropiperidin-1-yl)methanone] were, in that order, more than 1000 nM and more than 1000 nM.
As to `CC(C)(C)c1cc(Nc2nc(N3CCC[C@H]3C(=O)N3CCC(F)(F)CC3)nc3c2CCC3)n[nH]1` [142b, (S)-(1-(4-((5-(tert-butyl)-1H-pyrazol-3-yl)amino)-6,7-dihydro-5H-cyclopenta[d]pyrimidin-2-yl)pyrrolidin-2-yl)(4,4-difluoropiperidin-1-yl)methanone], the IC50 on FLT3 (D835Y) and on FLT3 (ITD) was more than 1000 nM each time.
`CC(C)c1cc(Nc2nc(N3CCC[C@H]3C(=O)N(C)c3nccs3)nc3c2CCC3)n[nH]1` [68b, (S)-1-(4-((5-isopropyl-1H-pyrazol-3-yl)amino)-6,7-dihydro-5H-cyclopenta[d]pyrimidin-2-yl)-N-methyl-N-(thiazol-2-yl)pyrrolidine-2-carboxamide]: the IC50 at FLT3 (D835Y) was 83.8 nM; against FLT3 (ITD), 167 nM.
The like results for `CC1(C(=O)N2CCC(F)(F)CC2)CCCN1c1nc2c(c(Nc3cc(C4CCCC4)[nH]n3)n1)CCC2` (racemic) [compound 146, (1-(4-((5-cyclopentyl-1H-pyrazol-3-yl)amino)-6,7-dihydro-5H-cyclopenta[d]pyrimidin-2-yl)-2-methylpyrrolidin-2-yl)(4,4-difluoropiperidin-1-yl)methanone] were, in that order, 1570 nM and 1480 nM.
